Like-named read-outs stand apart in the source and are kept apart here.
What was measured:
[1] = tested on: panel of breast cancer cell lines; test: Colony formation assay, IC50, panel of breast cancer cell lines; format: cell-based; details: for association of pattern of sensitivity across cell line panel with relative expression of BRCA1/BLM and BLM/Actin: panel of breast cancer cell lines
Protocol: Three cell lines (BT549, HCC1143, and HCC38) are normal genotype for BRCA1 and have high BLM/Actin and low ratio of BRCA1/BLM. Two cell lines (MDA231 and MDA453) are also normal genotype for BRCA1 but have relatively higher expression of BRCA1/BLM and lower BLM/actin. HCC1937 and MDA436 have homozygous mutation in BRCA1 and undetectable BRCA1/BLM, and higher expression of BLM/Actin.
A panel of cell lines was evaluated for sensitivity to various treatments as indicated by colony formation assay and calculation of IC50 values.

[2] = tested on: BT549 breast cancer cells; test: Colony formation assay, IC50, BT549 cells treated with siRNAs to BLM or FANCI; format: cell-based; details: versus scramble control
Protocol: We further treated BT549 breast cancer cells, with inherent high levels of BLM and FANCI were treated with gene-specific siRNAs to BLM or FANCI or with a scramble control.

[3] = tested on: triple negative breast cancer; details: TNBC patients, neoadjuvant cisplatin in combination with bevacizumab; 44 patients completed therapy (Ryan et al., JCO 2009); cited from earlier work
[4] = tested on: MDA231 breast cancer cells; test: Colony formation assay, IC50 for cisplatin, MDA231 cells with BLM overexpression; format: cell-based
Protocol: These cells were used in experiments to assess the effect of increasing the expression of BLM. A lentivirus expression vector for HA-tagged BLM cDNA or a control vector was transfected into MDA231 cells. BLM expression was assessed by Western blot analysis for endogenous BLM or for the HA-tag in cells treated with control vector, BLM cDNA, BLM cDNA and a small molecule inhibitor of BLM helicase (BLMi), or BLM cDNA and BLM siRNA.
IC50 for cisplatin was determined by colony formation assay in MDA231 breast cancer cells treated with control vector, BLM cDNA vector, BLM cDNA plus the BLM small molecule inhibitor, and BLM cDNA plus BLM siRNA. […] Consistent with the other findings, this effect was reversed by treatment with the BLM helicase inhibitor and by siRNA knockdown of BLM.

[5] = tested on: triple negative breast cancer; details: 28 TNBC patients, neoadjuvant cisplatin as single agent (Silver et al., JCO 2010); cited from earlier work
H2AX and 53BP1 foci = test: Immunofluorescence assay for markers of DNA damage (H2Ax-p and 53BP1-p) in MDA231 cells; format: cell-based; details: cisplatin after 4 hours, compared with no cisplatin treatment
Protocol: We also performed an immunofluorescence assay for markers of DNA damage (H2Ax-p and 53BP1-p) in MDA231 cells treated with control vector, BLM cDNA, BLM cDNA+BLM inhibitor, or BLM cDNA+BLM siRNA. Overexpression of BLM results in increased H2AX and 53BP1 foci in the absence of any cisplatin treatment indicating spontaneous DNA damage. This effect is even greater in cells treated with cisplatin after 4 hours. The quantitation of foci is shown in the lower bar graphs. The addition of a small molecule BLM helicase inhibitor (Bi) or siRNA to BLM (si) blocks the effect of BLM overexpression on DNA damage foci.

[6] = two BRCA1 mutated cell lines (HCC1937, MDA436) and three cell lines with low BRCA1/BLM and high BLM/actin (BT549, HCC1143, HCC38)
[7] = two cell lines with low BLM and high BRCA1/BLM (MDA231, MDA453)

Compound | association of pattern of sensitivity across cell line panel with relative expression of BRCA1/BLM and BLM/Actin [1] | sensitivity by colony formation assay (IC50) [1, 6] | sensitivity by colony formation assay (IC50) [1, 7] | effect of siRNA knockdown of either BLM or FANCI on IC50 [2] | patients who achieved at least 90% reduction in tumor size [3] [%] | sensitivity of MDA231 cells ([4]; MDA231 cells with low levels of BLM) | effect of overexpression of BLM on IC50 for cisplatin ([4]; MDA231 cells, BLM cDNA vector versus control vector) | patients who achieved at least 90% reduction in tumor size [5] [%] | H2AX and 53BP1 foci in BLM overexpressing cells (H2AX and 53BP1 foci)
O=C(c1cc(Cc2n[nH]c(=O)c3ccccc23)ccc1F)N1CCN(C(=O)C2CC2)CC1 [Olaparib] | associated | greater sensitivity | relatively resistant | – | – | – | – | – | –
CC(=O)O[C@H]1C(=O)[C@@]2(C)[C@H]([C@H](OC(=O)c3ccccc3)[C@]3(O)C[C@H](OC(=O)[C@H](O)[C@@H](NC(=O)c4ccccc4)c4ccccc4)C(C)=C1C3(C)C)[C@]1(OC(C)=O)CO[C@@H]1C[C@@H]2O [Paclitaxel] | no apparent association | – | – | no significant effect | – | – | – | – | –
N.N.[Cl][Pt][Cl] [cisplatin, cis-diamminedichloroplatinum] | associated | greater sensitivity | relatively resistant | increased IC50 (greater resistance) | 39 | relative resistance | decrease in the IC50 (greater sensitivity) | 36 | even greater
